Entries after “also recorded” stand apart in the source; their conditions may differ. Like-named read-outs stand apart in the source and are kept apart here. Ends that are not written are not given here.
Columns and labels:
DP IV and QC = experiment: Consecutive catalysis of DP IV and QC in crude pituitary homogenate with added DPIV, MALDI-TOF; format: biochemical, porcine; conditions: inhibitor added
Procedure: (§1) Matrix-assisted laser desorption/ionization mass spectrometry was carried out using the Hewlett-Packard G2025 LD-TOF System with a linear time of flight analyzer. […] Samples (5 μl) were mixed with equal volumes of the matrix solution. For matrix solution we used DHAP/DAHC, prepared by solving 30 mg 2′,6′-dihydroxyacetophenone (Aldrich) and 44 mg diammonium hydrogen citrate (Fluka) in 1 ml acetonitrile/0.1% TFA in water (1/1, v/v). A small volume (≈1 μl) of the matrix-analyte-mixture was transferred to a probe tip and immediately evaporated in a vacuum chamber (Hewlett-Packard G2024A sample prep accessory) to ensure rapid and homogeneous sample crystallization.

mammalian QC = conditions: Busby et al. 1987; cited from earlier work
[1] = system: Glutaminyl cyclase present in the homogenate of porcine pituitary; experiment: Cyclization of Gln3-Aβ(3-11)a by QC in pituitary homogenate, MALDI-TOF; format: biochemical
Procedure: as §1

QC [2] = molecular target: T1, QC (Homo sapiens, UniProt Q16769); experiment: Enzyme inactivation/reactivation of human QC; format: biochemical; set-up: The cDNA of the mature QC starting with codon 38 was fused in frame with the plasmid encoded 6× histidine tag; 6x histidine tag; made in house; host or cells: Pichia pastoris X33 (pPICZαB); also E. coli M15 (pQE-31)
T1 sequence (Q16769 29-361): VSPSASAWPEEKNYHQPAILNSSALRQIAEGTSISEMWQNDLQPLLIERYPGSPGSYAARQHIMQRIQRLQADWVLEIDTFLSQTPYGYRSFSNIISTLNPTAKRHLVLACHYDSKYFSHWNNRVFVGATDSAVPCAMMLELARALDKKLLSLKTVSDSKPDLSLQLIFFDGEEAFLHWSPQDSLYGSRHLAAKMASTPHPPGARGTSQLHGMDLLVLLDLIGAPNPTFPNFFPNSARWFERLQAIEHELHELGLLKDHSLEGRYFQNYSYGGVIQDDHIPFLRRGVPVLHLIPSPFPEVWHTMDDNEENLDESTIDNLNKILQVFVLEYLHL

DP IV (porcine kidney) = molecular target: T2, DP IV (porcine kidney) (Sus scrofa, UniProt P22411); experiment: DP IV cleavage of Gln3-Aβ(1-11)a, MALDI-TOF; format: biochemical
T2 construct: purified DP IV (porcine kidney); from tissue; host or cells: porcine kidney
T2 sequence (P22411 whole entry): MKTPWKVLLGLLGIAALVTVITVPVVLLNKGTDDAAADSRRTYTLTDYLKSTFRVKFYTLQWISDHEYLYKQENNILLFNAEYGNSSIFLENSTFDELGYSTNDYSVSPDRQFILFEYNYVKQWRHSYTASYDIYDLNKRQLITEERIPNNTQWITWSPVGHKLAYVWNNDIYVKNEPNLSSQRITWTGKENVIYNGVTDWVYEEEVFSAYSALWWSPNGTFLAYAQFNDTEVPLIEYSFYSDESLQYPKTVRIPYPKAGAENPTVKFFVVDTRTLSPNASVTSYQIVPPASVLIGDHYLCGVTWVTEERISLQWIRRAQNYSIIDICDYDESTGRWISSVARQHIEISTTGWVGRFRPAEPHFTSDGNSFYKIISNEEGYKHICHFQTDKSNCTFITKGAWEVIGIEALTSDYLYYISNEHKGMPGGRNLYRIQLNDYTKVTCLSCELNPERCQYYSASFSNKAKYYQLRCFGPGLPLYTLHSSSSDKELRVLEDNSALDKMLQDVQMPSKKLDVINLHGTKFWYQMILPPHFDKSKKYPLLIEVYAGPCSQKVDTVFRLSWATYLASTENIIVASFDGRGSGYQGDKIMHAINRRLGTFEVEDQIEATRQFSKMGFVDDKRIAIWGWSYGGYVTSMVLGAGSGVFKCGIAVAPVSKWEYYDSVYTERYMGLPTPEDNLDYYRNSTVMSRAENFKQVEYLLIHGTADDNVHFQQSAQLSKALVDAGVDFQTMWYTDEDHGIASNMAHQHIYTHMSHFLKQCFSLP
Procedure: as §1

QC [3] = molecular target: T1, QC; experiment: Long-term Glu1-cyclization of Aβ-derived peptides by recombinant human QC, MALDI-TOF; format: biochemical; set-up: The cDNA of the mature QC starting with codon 38 was fused in frame with the plasmid encoded 6× histidine tag; 6x histidine tag; made in house; host or cells: Pichia pastoris X33 (pPICZαB); also E. coli M15 (pQE-31); conditions: 5 mM benzimidazole
Description: At different times, samples were removed from the assay tube, peptides extracted using ZipTips (Millipore) according to the manufacturer's recommendations, mixed with matrix solution (1:1 v/v) and subsequently the mass spectra recorded.

[4] = Solubility in aqueous solution
QC [5] = molecular target: T1, QC; experiment: LC/MS analysis of QC-catalyzed pyroglutamate formation; format: biochemical

## c1cnc2c(c1)ccc1cccnc12 [1,10-phenanthroline]
DP IV and QC
  [pGlu3]Aβ(3-11)a formation from Gln3-Aβ(1-11)a in presence of DP IV and QC: inhibition
Mammalian QC
  inhibition of mammalian QC: Inhibition of a mammalian QC was only detected
[1]
  inhibition of formation of [pGlu3]Aβ(3-11)a from Gln3-Aβ(3-11)a: inhibited; also recorded: inhibition of the formation
QC [2]
  inhibition of human QC catalyzed substrate cyclization by chelators: inhibited
QC [2]; 5 mM inactivating agent
  inactivation of human QC after extensive dialysis: almost completely inactivated

## CC(C)[C@H](N)C(=O)N1CCCC1 [Val-Pyrr, Val-Pyrrolidide]
DP IV and QC
  [pGlu3]Aβ(3-11)a formation from Gln3-Aβ(1-11)a in presence of DP IV and QC: reduction
DP IV (porcine kidney)
  prevention of DP IV cleavage of Gln3-Aβ(1-11)a: completely prevented
DP IV (porcine kidney); listed as Val-Pyrrolidide
  prevention of DP IV cleavage of Gln3-Aβ(1-11)a: prevention of the cleavage

## c1ccc2[nH]cnc2c1 [benzimidazole]
QC [3]
  suppression of [pGlu3]Aβ(3-11)a / [pGlu3]Aβ(3-21)a formation: suppressed
QC [3]; listed as Benzimidazole
  suppression of [pGlu3]Aβ(3-11)a / [pGlu3]Aβ(3-21)a formation: suppressing the formation

## QFRHDSGYE-NH2 [[Gln^3]Aβ3-11a]
[4]
  solubility in aqueous solution: better solubility

## [Gln^5]-substance P(5-11): substance P fragment 5-11 with N-terminal Gln^5 after cleavage of residues 1-4 (QQFFGLM; ends and bridges not checked)
QC [5]
  formation of N-terminal pyroglutamate catalyzed by QC: transformed by QC

Reference: US7462599B2, “Use of effectors of glutaminyl and glutamate cyclases” (Probiodrug AG, priority 2003, dated 2008)
